Common to all, as to assay type: in vivo
Test [1] concerns Alopecurus myosuroides (ALOMY). As to the kind of experiment: Example B post-emergence herbicidal test, glasshouse. The following applies: 312 h, rate 250 g/ha, evaluated after 13 days, read-out: Post-Emergence Activity ALOMY (100=total damage to plant; 0=no damage to plant). On the procedure: (§1) Seeds of a variety of test species were sown in standard soil in pots. After cultivation for one day (pre-emergence) or after 8 days cultivation (post-emergence) under controlled conditions in a glasshouse (at 24/16° C., day/night; 14 hours light; 65% humidity), the plants were sprayed with an aqueous spray solution derived from the formulation of the technical active ingredient in acetone/water (50:50) solution containing 0.5% Tween 20 (polyoxyethelyene sorbitan monolaurate, CAS RN 9005-64-5). The test plants were then grown in a glasshouse under controlled conditions in a glasshouse (at 24/16° C., day/night; 14 hours light; 65% humidity) and watered twice daily. After 13 days for pre and post-emergence, the test was evaluated (100=total damage to plant; 0=no damage to plant). Test Plants: Alopecurus myosuroides (ALOMY), Avena fatua (AVEFA), Setaria faberi (SETFA), Echinochloa crus-galli (ECHCG), Solanum nigrum (SOLNI) and Amaranthus retoflexus (AMARE)

Test [2] relates to Amaranthus retoflexus (AMARE). Described as above. The settings on record: Amaranthus retroflexus, 312 h, rate 250 g/ha, evaluated after 13 days, read-out: Post-Emergence Activity AMARE (100=total damage to plant; 0=no damage to plant). On the procedure: as §1
In test [3] the test system is Avena fatua (AVEFA). The description is as above. The settings on record: 312 h, rate 250 g/ha, evaluated after 13 days, read-out: Post-Emergence Activity AVEFA (100=total damage to plant; 0=no damage to plant). On the procedure: as §1
Test [4] has as its system Setaria faberi (SETFA). The test is described as above. The following applies: 312 h, rate 250 g/ha, evaluated after 13 days, read-out: Post-Emergence Activity SEFTA (100=total damage to plant; 0=no damage to plant). The protocol:
as §1

The test system of test [5] is Echinochloa crus-galli (ECHCG). The test is described as above. The settings on record: 312 h, rate 250 g/ha, evaluated after 13 days, read-out: Post-Emergence Activity ECHGG (100=total damage to plant; 0=no damage to plant). On the procedure:
as §1

The test system of test [6] is Alopecurus myosuroides (ALOMY). The test is described as follows: Example B pre-emergence herbicidal test, glasshouse. The settings on record: 312 h, rate 250 g/ha, evaluated after 13 days, 100=total damage to plant, 0=no damage to plant. The protocol:
as §1

Test [7] has as its system Amaranthus retoflexus (AMARE). The description is as above. The settings on record: Amaranthus retroflexus, 312 h, rate 250 g/ha, evaluated after 13 days, 100=total damage to plant, 0=no damage to plant. The protocol:
as §1

The subject of test [8] is Avena fatua (AVEFA). The description is as above. The settings on record: 312 h, rate 250 g/ha, evaluated after 13 days, 100=total damage to plant, 0=no damage to plant. On the procedure:
as §1

The subject of test [9] is Setaria faberi (SETFA). Described as above. The settings on record: Setaria faberi, 312 h, rate 250 g/ha, evaluated after 13 days, 100=total damage to plant, 0=no damage to plant, read-out: Pre-Emergence Activity SEFTA. The protocol:
as §1

For test [10], the system named is Echinochloa crus-galli (ECHCG). The test is described as above. The following applies: Echinochloa crus-galli, 312 h, rate 250 g/ha, evaluated after 13 days, 100=total damage to plant, 0=no damage to plant, read-out: Pre-Emergence Activity ECHGG. On the procedure: as §1

Each structure is given as a SMILES string.

Consider `Cc1sc(-c2ccc(Cl)c(Cl)c2)nc1C1C(=O)C(C)(C)C(=O)C(C)(C)C1=O` [Compound T43], for which the pest or weed control at 250 g/ha was determined as 0% in test [1]; 0% in test [2]; 0% in the test on Avena fatua (AVEFA) [3]; 0% in the test on Setaria faberi (SETFA) [4]; 30% in test [5]; 0% in [6]. Besides, the pest or weed control at 250 g/ha (in test [7]; with Avena fatua (AVEFA) [8]; in the test with Setaria faberi (SETFA) [9]; in [10]) was 0% in each case.

On to `Cc1sc(COc2ccc(Cl)cc2)nc1C1C(=O)C(C)(C)OC(C)(C)C1=O` [Compound T59], for which the pest or weed control at 250 g/ha stood at 30% in test [1]; 0% in test [2]; 0% in the test with Avena fatua (AVEFA) [3]; 30% in the test with Setaria faberi (SETFA) [4]; 70% in [5]; 0% in [6]. Also, the pest or weed control at 250 g/ha (in [7]; in the test with Avena fatua (AVEFA) [8]; with Setaria faberi (SETFA) [9]; in test [10]) was 0% in each case.

With `Cc1sc(-c2ccc(OC(F)F)cc2Cl)nc1C1C(=O)C(C)(C)OC(C)(C)C1=O` [Compound T70], the pest or weed control at 250 g/ha in test [1] is 70%; in test [2], 0%; in the test with Avena fatua (AVEFA) [3], 10%; in the test with Setaria faberi (SETFA) [4] it was 90%; in [5], 90%; in test [6] it was 30%. For the same compound, the pest or weed control at 250 g/ha in test [7] is 0%; in the test with Avena fatua (AVEFA) [8], 0%; with Setaria faberi (SETFA) [9], 70%; in [10], 70%.

As for `CCc1sc(-c2ccc(SC)cc2)nc1C1C(=O)C(C)(C)OC(C)(C)C1=O` [Compound T69], the pest or weed control at 250 g/ha in [1] stood at 60%; in test [2], 0%; in the test on Avena fatua (AVEFA) [3], 40%; in the test on Setaria faberi (SETFA) [4], 90%; in test [5], 100%; in test [6], 0%. The pest or weed control at 250 g/ha in test [7] is 0%; in the test on Avena fatua (AVEFA) [8], 0%; with Setaria faberi (SETFA) [9] it was 20%; in test [10], 20%.

`CCc1sc(-c2ccc(Cl)cc2Cl)nc1C1C(=O)C(C)(C)OC(C)(C)C1=O` [Compound T53]: the pest or weed control at 250 g/ha was determined as 90% in [1]; 0% in [2]; 90% in the test on Avena fatua (AVEFA) [3]; 100% with Setaria faberi (SETFA) [4]; 100% in test [5]; 30% in test [6]. The pest or weed control at 250 g/ha stood at 0% in test [7], 0% with Avena fatua (AVEFA) [8], 90% with Setaria faberi (SETFA) [9] and 60% in test [10].

In the case of `Cc1sc(-c2ccc(Br)cn2)nc1C1=C(OC(=O)C2CC2)C(C)(C)OC(C)(C)C1=O` [Compound P4], the pest or weed control at 250 g/ha was found to be 40% in test [1]; 0% in test [2]; 0% in the test on Avena fatua (AVEFA) [3]; 90% in the test on Setaria faberi (SETFA) [4]; 90% in test [5]; 0% in test [6]. The pest or weed control at 250 g/ha is 0% in test [7], 0% with Avena fatua (AVEFA) [8], 20% in the test on Setaria faberi (SETFA) [9] and 10% in test [10].

As for `CCc1sc(-c2ccc(OC(F)F)cc2)nc1C1C(=O)C(C)(C)OC(C)(C)C1=O` [Compound T62], the pest or weed control at 250 g/ha in test [1] came to 100%; in [2], 0%; in the test on Avena fatua (AVEFA) [3], 100%; with Setaria faberi (SETFA) [4], 100%; in [5] it was 100%; in test [6], 90%. For the same compound, the pest or weed control at 250 g/ha in test [7] turned out to be 0%; in the test with Avena fatua (AVEFA) [8], 0%; in the test with Setaria faberi (SETFA) [9] it was 100%; in [10], 60%.

Turning to `CC(=O)OC1=C(c2nc(-c3ccc(Br)cc3C)sc2C)C(=O)C(C)(C)OC1(C)C` [Compound P6], the pest or weed control at 250 g/ha worked out at 100% in test [1]; 0% in test [2]; 90% in the test with Avena fatua (AVEFA) [3]; 100% in the test with Setaria faberi (SETFA) [4]; 100% in test [5]; 90% in test [6]. For the same compound, the pest or weed control at 250 g/ha in test [7] amounted to 0%; in the test on Avena fatua (AVEFA) [8] it was 80%; with Setaria faberi (SETFA) [9] it was 100%; in [10], 70%.

Regarding `CCc1sc(-c2ccc(Cl)cc2)nc1C1C(=O)C2CCC(C)(O2)C1=O` (stereo not shown) [Compound T50, 3-[2-(4-chloro-phenyl)-5-ethyl-thiazol-4-yl]-1-methyl-8-oxa-bicyclo[3.2.1]-octane-2,4-dione], the pest or weed control at 250 g/ha is 100% in test [1]; 0% in test [2]; 100% in the test on Avena fatua (AVEFA) [3]; 100% with Setaria faberi (SETFA) [4]; 100% in test [5]; 90% in test [6]. The pest or weed control at 250 g/ha in test [7] came to 0%; in the test on Avena fatua (AVEFA) [8], 90%; in the test on Setaria faberi (SETFA) [9], 100%; in [10], 100%.

In the case of `CCc1sc(-c2ccc(Br)cn2)nc1C1C(=O)C(C)(C)OC(C)(C)C1=O` [Compound T63], the pest or weed control at 250 g/ha came out at 80% in test [1]; 0% in test [2]; 90% with Avena fatua (AVEFA) [3]; 100% in the test on Setaria faberi (SETFA) [4]; 100% in test [5]; 20% in test [6]. In addition, the pest or weed control at 250 g/ha in test [7] was 0%; in the test with Avena fatua (AVEFA) [8] it was 20%; in the test with Setaria faberi (SETFA) [9], 20%; in test [10], 30%.

Consider `Cc1cc(Br)ccc1-c1nc(C2=C(OC(=O)C3CC3)C(C)(C)OC(C)(C)C2=O)c(C)s1` [Compound P7], for which the pest or weed control at 250 g/ha in test [1] was determined as 80%; in test [2], 0%; in the test on Avena fatua (AVEFA) [3], 80%; with Setaria faberi (SETFA) [4], 100%; in [5] it was 100%; in test [6] it was 70%. Moreover, the pest or weed control at 250 g/ha in test [7] worked out at 0%; in the test on Avena fatua (AVEFA) [8], 0%; in the test with Setaria faberi (SETFA) [9], 100%; in [10] it was 80%.

Take `CC(=O)OC1=C(c2nc(-c3ccc(Br)cn3)sc2C)C(=O)C(C)(C)OC1(C)C` [Compound P3]: the pest or weed control at 250 g/ha in test [1] was 50%; in test [2], 0%; in the test on Avena fatua (AVEFA) [3], 30%; in the test with Setaria faberi (SETFA) [4] it was 90%; in test [5] it was 90%; in test [6], 20%. Besides, the pest or weed control at 250 g/ha in [7] is 0%; in the test with Avena fatua (AVEFA) [8], 0%; in the test with Setaria faberi (SETFA) [9] it was 20%; in [10], 30%.

Turning to `CCc1sc(-c2ccc(Cl)c(F)c2)nc1C1C(=O)C(C)(C)OC(C)(C)C1=O` [Compound T48], the pest or weed control at 250 g/ha in [1] was determined as 100%; in [2] it was 0%; with Avena fatua (AVEFA) [3] it was 100%; with Setaria faberi (SETFA) [4] it was 100%; in test [5], 100%; in test [6], 30%. Also, the pest or weed control at 250 g/ha in test [7] was 0%; in the test on Avena fatua (AVEFA) [8] it was 60%; in the test on Setaria faberi (SETFA) [9] it was 70%; in test [10] it was 50%.

The record behind these values is patent US8956999B2, “Herbicides” (Syngenta Limited, priority 2007, dated 2015).
